Some test systems named below: NCI-H226 lung; SK-OV-3 ovarian; LOX IMVI melanoma; A498 renal; MOLT-4 leukemia; T-47D breast; SK-MEL-5 melanoma; HS 578T breast; SF-268 CNS; OVCAR-3 ovarian; HCC-2998 colon; OVCAR-4 ovarian; NCI-H460 lung; NCI/ADR-RES ovarian; SNB-75 CNS.
What all share (experiment): NCI anticancer screen, dose series, 48 h

Here are results for 8 compounds from PubChem BioAssay (NCI).

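The compound was tested at five concentrations on cells cultured in 96-well plates, with a 48-hour exposure period. Definition used: TGI = concentration required for complete inhibition of growth.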 A value given as a limit tells only on which side of the number the result lay.

For `CC1=C(C)SC(=C2Sc3c(n(C)c(=O)[nH]c3=O)S2)S1`, the TGI in the experiment on NCI-H226 lung, in the experiment with SK-OV-3 ovarian, with LOX IMVI melanoma, in the experiment on A498 renal, in the experiment with MOLT-4 leukemia and in the experiment with T-47D breast was over 100 µM throughout. In addition, the TGI in the experiment with SK-MEL-5 melanoma, in the experiment with HS 578T breast, in the experiment on SF-268 CNS, in the experiment with OVCAR-3 ovarian, in the experiment with HCC-2998 colon and in the experiment on OVCAR-4 ovarian was over 100 µM each time. The TGI in the experiment with NCI-H460 lung, in the experiment with NCI/ADR-RES ovarian and in the experiment with SNB-75 CNS was over 100 µM each time.
Consider `CC(C)=CCNc1ncnc2c1ncn2CCC(=O)OC(C)(C)C`, for which the TGI in the experiment with NCI-H226 lung, in the experiment on SK-OV-3 ovarian, with LOX IMVI melanoma, in the experiment with A498 renal, in the experiment with MOLT-4 leukemia and in the experiment with T-47D breast was over 100 µM each time. Besides, the TGI in the experiment on SK-MEL-5 melanoma was 70 µM; in the experiment with HS 578T breast it was over 100 µM; with SF-268 CNS it was over 100 µM; in the experiment on OVCAR-3 ovarian, over 100 µM; in the experiment with HCC-2998 colon it was over 100 µM; in the experiment with OVCAR-4 ovarian, 40.4 µM. Moreover, the TGI in the experiment on NCI-H460 lung, in the experiment on NCI/ADR-RES ovarian and with SNB-75 CNS was over 100 µM in each case.
Take `O=C(O)CN1CCNCCN(CC(=O)O)CC1`: the TGI with NCI-H226 lung is over 42.9 µM; in the experiment on SK-OV-3 ovarian it was 98.4 µM; with LOX IMVI melanoma, over 100 µM; in the experiment with A498 renal, over 68.7 µM; in the experiment on MOLT-4 leukemia, over 100 µM; in the experiment on T-47D breast it was over 100 µM. Further, the TGI is 39.5 µM with SK-MEL-5 melanoma; over 100 µM with HS 578T breast; over 100 µM with SF-268 CNS; over 100 µM in the experiment with OVCAR-3 ovarian; 55.7 µM in the experiment on HCC-2998 colon; over 100 µM with OVCAR-4 ovarian. In addition, the figures for the TGI with NCI-H460 lung, with NCI/ADR-RES ovarian and in the experiment with SNB-75 CNS were over 64.4 µM, 7.3 µM and over 100 µM, respectively.
Turning to `CCOC(=O)Cn1c(=O)c2nc(SC)sc2n(-c2ccc(C)cc2)c1=S`, the TGI with NCI-H226 lung was 69.6 µM; in the experiment on SK-OV-3 ovarian, over 100 µM; in the experiment on LOX IMVI melanoma it was over 100 µM; in the experiment on A498 renal it was over 100 µM; in the experiment with MOLT-4 leukemia, over 100 µM; in the experiment with T-47D breast it was over 100 µM. The TGI with SK-MEL-5 melanoma is over 100 µM; in the experiment with HS 578T breast, over 66.5 µM; in the experiment with SF-268 CNS, over 89.2 µM; in the experiment on OVCAR-3 ovarian, over 100 µM; in the experiment with HCC-2998 colon it was over 100 µM; in the experiment with OVCAR-4 ovarian it was 35.2 µM. For the same compound, the TGI is over 100 µM in the experiment with NCI-H460 lung, over 100 µM with NCI/ADR-RES ovarian and 44.2 µM in the experiment with SNB-75 CNS.
As to `Cc1cc(C)c2c(=O)cc(-c3ccc(Cl)cc3)[nH]c2n1`, the TGI in the experiment with NCI-H226 lung, in the experiment on SK-OV-3 ovarian, in the experiment on LOX IMVI melanoma, with A498 renal, in the experiment on MOLT-4 leukemia and in the experiment with T-47D breast was over 100 µM each time. The TGI with SK-MEL-5 melanoma was over 74.2 µM; with HS 578T breast it was over 100 µM; in the experiment on SF-268 CNS it was over 100 µM; in the experiment on OVCAR-3 ovarian, over 100 µM; in the experiment with HCC-2998 colon, over 100 µM; in the experiment with OVCAR-4 ovarian, over 100 µM. The TGI in the experiment on NCI-H460 lung is over 100 µM; with NCI/ADR-RES ovarian, over 74.3 µM; with SNB-75 CNS, over 65 µM.
As for `c1ccc(COCC23CCN(Cc4ccccc4)C(CC(OCc4ccccc4)C2)S3)cc1` (stereo not given), the TGI was over 100 µM in the experiment on NCI-H226 lung; over 100 µM in the experiment with SK-OV-3 ovarian; over 100 µM with LOX IMVI melanoma; over 100 µM in the experiment with A498 renal; 69.9 µM in the experiment with MOLT-4 leukemia; over 100 µM in the experiment on T-47D breast. The TGI in the experiment on SK-MEL-5 melanoma was 32.3 µM; in the experiment on HS 578T breast, over 100 µM; with SF-268 CNS, over 100 µM; with OVCAR-3 ovarian, over 100 µM; with HCC-2998 colon, over 100 µM; in the experiment on OVCAR-4 ovarian it was over 100 µM. Besides, the TGI in the experiment with NCI-H460 lung, with NCI/ADR-RES ovarian and in the experiment with SNB-75 CNS was over 100 µM throughout.
Turning to `CCCCCCCCCCCCCCCCOP(=O)(O)OP(=O)(O)OCC1OC(n2ccc(N)nc2=O)CC1O` (stereo not given), the TGI with NCI-H226 lung, in the experiment on SK-OV-3 ovarian, in the experiment on LOX IMVI melanoma, in the experiment on A498 renal, in the experiment with MOLT-4 leukemia and in the experiment on T-47D breast was over 100 µM throughout. For the same compound, the TGI in the experiment with SK-MEL-5 melanoma, in the experiment with HS 578T breast, in the experiment with SF-268 CNS, in the experiment on OVCAR-3 ovarian, in the experiment with HCC-2998 colon and in the experiment on OVCAR-4 ovarian was over 100 µM each time. Further, the TGI in the experiment on NCI-H460 lung, with NCI/ADR-RES ovarian and with SNB-75 CNS was over 100 µM throughout.
For `CC1(C)C(O)c2ccccc2OC1N1CCN(C2Oc3ccccc3C(O)C2(C)C)CC1` (stereo not given), the TGI with NCI-H226 lung, in the experiment with SK-OV-3 ovarian, with LOX IMVI melanoma, in the experiment on A498 renal, in the experiment on MOLT-4 leukemia and in the experiment with T-47D breast was over 100 µM throughout. Moreover, the TGI in the experiment on SK-MEL-5 melanoma, in the experiment with HS 578T breast, with SF-268 CNS, in the experiment on OVCAR-3 ovarian, with HCC-2998 colon and with OVCAR-4 ovarian was over 100 µM in each case. Also, the TGI in the experiment with NCI-H460 lung, in the experiment with NCI/ADR-RES ovarian and with SNB-75 CNS was over 100 µM throughout.
